Data reported in patent US20250171463A1 (BIOGEN MA INC., priority 2022, published 2025).

Target: T1, EBP (Homo sapiens, UniProt Q15125)
T1 construct: HEK293T cells were utilized as the source of EBP enzyme; endogenous in cells; host or cells: HEK293T
Assay: EBP Functional Assay (EBP immunoaffinity LC-MS assay)
Format: biochemical
Conditions: EBP enzyme from HEK293T cells; 30 min with inhibitor, then zymosterol-d5, 37° C., 4 h; percent conversion to dehydrolathosterol-d5 by LC-APCI MRM MS
Procedure: The EBP immunoaffinity (IA) LC-MS assay measures the potency of small molecule inhibitors of EBP by quantifying their concentration-dependent changes in the enzyme's substrate and product using liquid chromatography atmospheric pressure chemical ionization multiple reaction monitoring mass spectrometry (LC-APCI MRM MS). HEK293T cells were utilized as the source of EBP enzyme. The enzyme was incubated with the small molecule inhibitors at variable concentrations for 30 min. Deuterated form of EBP substrate, zymosterol-d5 (Avanti Polar Lipids, Cat #700068P-1 mg), was then added and the plate was incubated at 37° C. for 4 h. Finally, the sterol isomers were extracted and injected to LC-APCI MRM MS. MRM transition used for the quantification for both zymosterol and […] (substrate and product of EBP enzymatic reaction, respectively) is 372.3-203.2, CE 30 and DP 80 in positive ion mode. Percent conversion of the zymosterol-d5 to dehydrolathosterol-d5 was used to derive IC50 curves. Tasin-1 (1′-[(4-Methoxyphenyl)sulfonyl]-4-methyl-1,4′-bipiperidine, CAS 792927-06-1) was used as the reference small molecule inhibitor.
Percent conversion versus the compound concentration data were fit to the following 4-parameter logistic model to generate IC50 curves: […]

T1 sequence (Q15125 whole entry): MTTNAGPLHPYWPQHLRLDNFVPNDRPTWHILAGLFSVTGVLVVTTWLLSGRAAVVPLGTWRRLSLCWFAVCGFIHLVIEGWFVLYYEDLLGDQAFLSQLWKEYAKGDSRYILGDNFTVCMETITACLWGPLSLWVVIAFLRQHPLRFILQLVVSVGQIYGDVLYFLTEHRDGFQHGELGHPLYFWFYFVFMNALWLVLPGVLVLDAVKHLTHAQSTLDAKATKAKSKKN

SMILES	IC50 [nM]
CC1(O)CCC(N2CC3(C2)CN(S(=O)(=O)c2cnc(C(F)(F)F)cc2C2CC2)C3)CC1 (single isomer, unassigned) [Example 123, 4-(6-((4-cyclopropyl-6-(trifluoromethyl)pyridin-3-yl)sulfonyl)-2,6-diazaspiro[3.3]heptan-2-yl)-1-methylcyclohexan-1-ol]	100 to 250
Cc1cc(C(F)(F)F)ccc1S(=O)(=O)N1CC2(CN(CC3CCOCC3)C2)C1 [Example 194, 2-((2-methyl-4-(trifluoromethyl)phenyl)sulfonyl)-6-((tetrahydro-2H-pyran-4-yl)methyl)-2,6-diazaspiro[3.3]heptane]	< 100
O=S(=O)(c1ccc(OC(F)F)cc1)N1CCOC2(CCN(C3CCOCC3)C2)C1 (racemic) [Example 2, 9-((4-(Difluoromethoxy)phenyl)sulfonyl)-2-(tetrahydro-2H-pyran-4-yl)-6-oxa-2,9-diazaspiro[4.5]decane]	100 to 250
Cc1nc(C(F)(F)F)ccc1S(=O)(=O)N1CC2(C1)CN([C@H]1C[C@]3(CCO3)C1)C2 [Example 70, 2-((2-methyl-6-(trifluoromethyl)pyridin-3-yl)sulfonyl)-6-((4s,6s)-1-oxaspiro[3.3]heptan-6-yl)-2,6-diazaspiro[3.3]heptane]	< 100
Cc1ccc(S(=O)(=O)N2CCC3(CC2)CN(CC2CCOCC2)C3)c(C)c1 [Example 35, 7-((2,4-Dimethylphenyl)sulfonyl)-2-((tetrahydro-2H-pyran-4-yl)methyl)-2,7-diazaspiro[3.5]nonane]	< 100
Cc1cc(C(F)(F)F)ncc1S(=O)(=O)N1CC2(CN(CC3CCOCC3)C2)C1 [Example 217, 2-((4-methyl-6-(trifluoromethyl)pyridin-3-yl)sulfonyl)-6-((tetrahydro-2H-pyran-4-yl)methyl)-2,6-diazaspiro[3.3]heptane]	< 100
Cc1nc(C(F)(F)F)ccc1S(=O)(=O)N1CC2(CN(CC3(O)CCOCC3)C2)C1 [Example 187, 4-((6-((2-methyl-6-(trifluoromethyl)pyridin-3-yl)sulfonyl)-2,6-diazaspiro[3.3]heptan-2-yl)methyl)tetrahydro-2H-pyran-4-ol]	250 to 4000
O=S(=O)(c1ccc(OC(F)F)cc1)N1CCO[C@@]2(CCN(C3CC4(COC4)C3)C2)C1 (single isomer, unassigned) [Example 26]	100 to 250
COC(C)(C)CN1CC2(C[C@H]3CC[C@@H](C2)N3S(=O)(=O)c2ccc(OC(F)F)cc2)C1 [Example 63, (1′R,5′S)-8′-((4-(Difluoromethoxy)phenyl)sulfonyl)-1-(2-methoxy-2-methylpropyl)-8′-azaspiro[azetidine-3,3′-bicyclo[3.2.1]octane]]	100 to 250
O=S(=O)(c1ccc(OC(F)(F)F)cc1F)N1CC2(CN(CC3CCOCC3)C2)C1 [Example 220, 2-((2-fluoro-4-(trifluoromethoxy)phenyl)sulfonyl)-6-((tetrahydro-2H-pyran-4-yl)methyl)-2,6-diazaspiro[3.3]heptane]	250 to 4000
Cc1cc(S(=O)(=O)N2CCC3(CCN(C4CCOCC4)C3)CC2)n(C)n1 [Example 37]	100 to 250
Cc1ccc(S(=O)(=O)N2CC3(CN(CC4(O)CCOCC4)C3)C2)c(C)c1 [Example 45, 4-((6-((2,4-Dimethylphenyl)sulfonyl)-2,6-diazaspiro[3.3]heptan-2-yl)methyl)tetrahydro-2H-pyran-4-ol]	100 to 250
O=S(=O)(c1cc(C(F)(F)F)nn1CC1CC1)N1CC2(CN(C3CCOCC3)C2)C1 [Example 65, 2-((1-(cyclopropylmethyl)-3-(trifluoromethyl)-1H-pyrazol-5-yl)sulfonyl)-6-(tetrahydro-2H-pyran-4-yl)-2,6-diazaspiro[3.3]heptane]	250 to 4000
Cc1nc(C(F)(F)F)ccc1S(=O)(=O)N1CC2(CN(C3CCC(C)(O)CC3)C2)C1 (stereo not shown) [Example 223, 1-methyl-4-(6-((2-methyl-6-(trifluoromethyl)pyridin-3-yl)sulfonyl)-2,6-diazaspiro[3.3]heptan-2-yl)cyclohexan-1-ol]	250 to 4000
Cc1nc(C(F)(F)F)ccc1S(=O)(=O)N1CC2(CN(C(C)C3(C)CCCO3)C2)C1 (mixture of isomers) [Example 135]	< 100
Cn1nc(C(F)F)cc1S(=O)(=O)N1CC2(CN(C3CCOCC3)C2)C1 [Example 96, 2-((3-(difluoromethyl)-1-methyl-1H-pyrazol-5-yl)sulfonyl)-6-(tetrahydro-2H-pyran-4-yl)-2,6-diazaspiro[3.3]heptane]	100 to 250
COC(CN1CC2(C1)CN(S(=O)(=O)c1ccc(C(F)(F)F)nc1C)C2)C1CC1 (stereo not shown) [Example 178]	250 to 4000
Cc1nc(C(F)(F)F)ccc1S(=O)(=O)N1CC2(CN(C3CC4(CCO4)C3)C2)C1 (racemic) [Example 69, rac-2-((2-methyl-6-(trifluoromethyl)pyridin-3-yl)sulfonyl)-6-(1-oxaspiro[3.3]heptan-6-yl)-2,6-diazaspiro[3.3]heptane]	250 to 4000
Cc1nc(OC(F)F)ccc1S(=O)(=O)N1CC2(CN(C3CCOCC3)C2)C1 [Example 94, 2-((6-(difluoromethoxy)-2-methylpyridin-3-yl)sulfonyl)-6-(tetrahydro-2H-pyran-4-yl)-2,6-diazaspiro[3.3]heptane]	< 100

SMILES	IC50 [nM]
O=S(=O)(c1cnc(C2CC2)s1)N1CCOC2(CN(C3CCOCC3)C2)C1 [Example 22, 8-((2-Cyclopropylthiazol-5-yl)sulfonyl)-2-(tetrahydro-2H-pyran-4-yl)-5-oxa-2,8-diazaspiro[3.5]nonane]	250 to 4000
Cc1nc(C(F)(F)F)ccc1S(=O)(=O)N1CC2(C1)CN([C@H]1C[C@@]3(CCO3)C1)C2 [Example 71, 2-((2-methyl-6-(trifluoromethyl)pyridin-3-yl)sulfonyl)-6-((4r,6r)-1-oxaspiro[3.3]heptan-6-yl)-2,6-diazaspiro[3.3]heptane]	100 to 250
O=S(=O)(c1ccc(OC(F)F)cc1)N1CCOC2(CCN(C3CCOCC3)CC2)C1 [Example 5, 4-((4-(Difluoromethoxy)phenyl)sulfonyl)-9-(tetrahydro-2H-pyran-4-yl)-1-oxa-4,9-diazaspiro[5.5]undecane]	100 to 250
CCc1cc(C(F)(F)F)ncc1S(=O)(=O)N1CC2(CN(C3CC4(COC4)C3)C2)C1 [Example 125, 2-((4-ethyl-6-(trifluoromethyl)pyridin-3-yl)sulfonyl)-6-(2-oxaspiro[3.3]heptan-6-yl)-2,6-diazaspiro[3.3]heptane]	250 to 4000
Cc1nc(C(F)(F)F)ccc1S(=O)(=O)N1CC2(CN(CC3CCCO3)C2)C1 (stereo not shown) [Example 139]	250 to 4000
Cn1nc(C(F)(F)F)cc1S(=O)(=O)N1CC2(CN(CC3COCCO3)C2)C1 (racemic) [Example 215, rac-2-((1,4-dioxan-2-yl)methyl)-6-((1-methyl-3-(trifluoromethyl)-1H-pyrazol-5-yl)sulfonyl)-2,6-diazaspiro[3.3]heptane]	250 to 4000
Cc1ccc(S(=O)(=O)N2CCC3(CC2)CN(C2CCOCC2)C3)c(C)c1 [Example 31, 7-((2,4-Dimethylphenyl)sulfonyl)-2-(tetrahydro-2H-pyran-4-yl)-2,7-diazaspiro[3.5]nonane]	250 to 4000
Cc1nc(C(F)(F)F)ccc1S(=O)(=O)N1CC2(CN(C(C)C3COC3)C2)C1 (racemic) [Example 155, rac-2-((2-methyl-6-(trifluoromethyl)pyridin-3-yl)sulfonyl)-6-(1-(oxetan-3-yl)ethyl)-2,6-diazaspiro[3.3]heptane]	< 100
CC1(CN2CCC3(CC2)CN(S(=O)(=O)c2ccc(OC(F)F)cc2)CCO3)COC1 [Example 20, 4-((4-(Difluoromethoxy)phenyl)sulfonyl)-9-((3-methyloxetan-3-yl)methyl)-1-oxa-4,9-diazaspiro[5.5]undecane]	100 to 250
Cc1nc(C(F)(F)F)ccc1S(=O)(=O)N1CC2(CN(C[C@@H]3CC[C@H]4C[C@H]3CO4)C2)C1 (racemic) [Example 175]	< 100
Cc1nc(C(C)(F)F)ccc1S(=O)(=O)N1CC2(CN(C3CCCOC3)C2)C1 (stereo not shown) [Example 80]	250 to 4000
O=S(=O)(c1cc(F)cc(F)c1)N1CCO[C@]2(CCN(C3CCOCC3)C2)C1 (single isomer, unassigned) [Example 14]	< 100
Cc1nc(C(C)(F)F)ccc1S(=O)(=O)N1CC2(CN(CC3(C)CCOCC3)C2)C1 [Example 83]	100 to 250
O=S(=O)(c1ccc(C(F)(F)F)nc1C1CC1)N1CC2(CN(CC3CCOCC3)C2)C1 [Example 190, 2-((2-cyclopropyl-6-(trifluoromethyl)pyridin-3-yl)sulfonyl)-6-((tetrahydro-2H-pyran-4-yl)methyl)-2,6-diazaspiro[3.3]heptane]	< 100
Cc1nc(C(C)(F)F)ccc1S(=O)(=O)N1CC2(CN(CC3CCOC3)C2)C1 (stereo not shown) [Example 85]	< 100
Cc1nc(C(F)(F)F)ccc1S(=O)(=O)N1CC2(CN(C3CCOCC3)C2)C1 [Example 51, 2-((2-Methyl-6-(trifluoromethyl)pyridin-3-yl)sulfonyl)-6-(tetrahydro-2H-pyran-4-yl)-2,6-diazaspiro[3.3]heptane]	< 100
Cc1nc(C(F)(F)F)ccc1S(=O)(=O)N1CC2(CN(C3CCCOC3)C2)C1 (stereo not shown) [Example 151]	250 to 4000
Cc1ccc(S(=O)(=O)N2CC3(CCN(C4CCOCC4)C3)C2)c(C)c1 [Example 52, 2-((2,4-Dimethylphenyl)sulfonyl)-6-(tetrahydro-2H-pyran-4-yl)-2,6-diazaspiro[3.4]octane]	< 100
